Measurements published in US12084435B2, “Pyridine ring-substituted pyridazinol compounds and derivatives, preparation methods, herbicidal compositions and applications thereof” (Qingdao Kingagroot Chemical Compound Co., Ltd., priority 2018, dated 2024).

tested on: monocotyledonous and dicotyledonous weed; assay: Post-emergence test, weed control effect (Tables 6 and 7); format: in vivo; design: key: 10: completely dead; above 90% growth inhibition rate; above 80% growth inhibition rate; above 70% growth inhibition rate; above 60% growth inhibition rate; above 50% growth inhibition rate; above 40% growth inhibition rate; above 30% growth inhibition rate; above 20% growth inhibition rate; 1: below 20% growth inhibition rate; 0: no effect; settings: Dose 2000 g/ha, after 3 weeks
Experimental: The above described growth inhibition rates are fresh weight inhibition rates. Experiment of post-emergence test: monocotyledonous and dicotyledonous weed seeds as well as main crop seeds (i.e., wheat, corn, rice, soybean, cotton, oilseed rape, millet and sorghum) were put into aplastic pot loaded with soil, then covered with 0.5-2 cm of soil, and the seeds were allowed to grow in good greenhouse environment. The test plants were treated at 4-5 leaf stage 2-3 week […] sowing. The test compounds of the invention were dissolved in acetone respectively, then added with Tween-80 and diluted by a certain amount of water to give solutions with certain concentrations. The solution was sprayed to the plants with as prayer. The plants were cultured for 3 weeks in the greenhouse.

What does the source list for `Oc1cc(Cl)nnc1-c1cccnc1Cl` [Compound 1-6]?
weed control effect (activity level), Amaranthus retroflexus: 10; weed control effect (activity level), Chenopodiaceae: 10; weed control effect (activity level), Rorippa indica: 10; weed control effect (activity level), Veronica polita: 7 (above 70% growth inhibition rate)

Which results are given for `Oc1cc(Cl)nnc1-c1ccc(F)nc1F` [Compound 1-57]?
weed control effect (activity level), Amaranthus retroflexus: 10; weed control effect (activity level), Chenopodiaceae: 10; weed control effect (activity level), Rorippa indica: 10; weed control effect (activity level), Veronica polita: 10

For `Oc1cc(Cl)nnc1-c1cncc(Cl)c1` [Compound 1-8], which “weed control effect (activity level), Amaranthus retroflexus” value is on record?
Its value is 10.

And the “weed control effect (activity level), Chenopodiaceae” value (from here on “weed control effect … Chenopodiaceae”)?
Its value is 10.

What about the “weed control effect (activity level), Rorippa indica” value (“weed control effect … Rorippa indica” for short) of the same molecule?
Its value is 10.

What about the “weed control effect (activity level), Veronica polita” value (“weed control effect … Veronica polita” for short) of the same molecule?
Its value is 10.

With `Oc1cc(Cl)nnc1-c1cc(F)cnc1F` [Compound 1-58] as the molecule, how does the “weed control effect (activity level), Amaranthus retroflexus” value read?
Its value is 10.

What about the “weed control effect … Chenopodiaceae” value of the same molecule?
Its value is 10.

What about the “weed control effect … Rorippa indica” value of the same molecule?
Its value is 10.

And the “weed control effect … Veronica polita” value?
Its value is 10.

With `Oc1cc(Cl)nnc1-c1ccc(Cl)nc1Cl` [Compound 1-63] as the molecule, how does the “weed control effect (activity level), Amaranthus retroflexus” value read?
Its value is 10.

What about the “weed control effect … Chenopodiaceae” value of the same molecule?
Its value is 10.

And the “weed control effect … Rorippa indica” value?
The value was 10.

And the “weed control effect … Veronica polita” value?
The value was 10.

tested on: Echinochloa crusgalli, Scirpus juncoides, Sagittaria trifolia L. and Bidens tripartite; assay: Resistance tests of the collected rice-field weeds; format: in vivo; settings: common rate; weed seeds collected from Heilongjiang Province of China
Source text: Note: The seeds of Echinochloa crusgalli, Scirpus juncoides, Sagittaria trifolia L. and Bidens tripartite were collected from Heilongjiang Province of China.

`CCOC(=O)c1cnn(C)c1S(=O)(=O)NC(=O)Nc1nc(OC)cc(OC)n1` [pyrazosulfuron-ethyl] was tested. Which “resistance of the weeds to the herbicide” value did it give?
The value was “resistant”.
